Test results taken from ChEMBL document CHEMBL4004849, “Tetrazolylmethyl quinolines: Design, docking studies, synthesis, anticancer and antifungal analyses” (2017).
≈ marks a conversion by molar mass, not a printed value. Calls of active or inactive are those of the source. No cut-off for these calls is given here.

Assays:
Type in all cases: functional
[1] = system: UACC-62; assay: Growth inhibition of human UACC62 cells at 10^-5 M incubated for 48 hrs by sulforhodamine B assay relative to control
[2] = system: SNB-19; assay: Growth inhibition of human SNB19 cells at 10^-5 M incubated for 48 hrs by sulforhodamine B assay relative to control
[3] = system: TK-10; assay: Growth inhibition of human TK10 cells at 10^-5 M incubated for 48 hrs by sulforhodamine B assay relative to control
[4] = system: HCT-116; assay: Growth inhibition of human HCT116 cells at 10^-5 M incubated for 48 hrs by sulforhodamine B assay relative to control
[5] = system: HCC 2998; assay: Growth inhibition of human HCC2998 cells at 10^-5 M incubated for 48 hrs by sulforhodamine B assay relative to control
[6] = system: NCI-H23; assay: Growth inhibition of human NCI-H23 cells at 10^-5 M incubated for 48 hrs by sulforhodamine B assay relative to control
[7] = system: UACC-257; assay: Growth inhibition of human UACC257 cells at 10^-5 M incubated for 48 hrs by sulforhodamine B assay relative to control
[8] = system: MDA-MB-231; assay: Growth inhibition of human MDA-MB-231/ATCC cells at 10^-5 M incubated for 48 hrs by sulforhodamine B assay relative to control
[9] = system: KM12; assay: Growth inhibition of human KM12 cells at 10^-5 M incubated for 48 hrs by sulforhodamine B assay relative to control
[10] = system: A549; assay: Growth inhibition of human A549/ATCC cells at 10^-5 M incubated for 48 hrs by sulforhodamine B assay relative to control
[11] = system: HL-60(TB); assay: Growth inhibition of human HL-60(TB) cells at 10^-5 M incubated for 48 hrs by sulforhodamine B assay relative to control
[12] = system: MCF7; assay: Growth inhibition of human MCF7 cells at 10^-5 M incubated for 48 hrs by sulforhodamine B assay relative to control
[13] = system: HCT-15; assay: Growth inhibition of human HCT15 cells at 10^-5 M incubated for 48 hrs by sulforhodamine B assay relative to control
[14] = system: OVCAR-4; assay: Growth inhibition of human OVCAR4 cells at 10^-5 M incubated for 48 hrs by sulforhodamine B assay relative to control
[15] = system: SF-539; assay: Growth inhibition of human SF539 cells at 10^-5 M incubated for 48 hrs by sulforhodamine B assay relative to control
[16] = system: EKVX; assay: Growth inhibition of human EKVX cells at 10^-5 M incubated for 48 hrs by sulforhodamine B assay relative to control
[17] = system: NCI-H460; assay: Growth inhibition of human NCI-H460 cells at 10^-5 M incubated for 48 hrs by sulforhodamine B assay relative to control
[18] = system: RXF 393; assay: Growth inhibition of human RXF393 cells at 10^-5 M incubated for 48 hrs by sulforhodamine B assay relative to control
[19] = system: T47D; assay: Growth inhibition of human T47D cells at 10^-5 M incubated for 48 hrs by sulforhodamine B assay relative to control
[20] = system: Aspergillus fumigatus; assay: Antifungal activity against Aspergillus fumigatus after 24 hrs by serial dilution method
[21] = system: NCI/ADR-RES; assay: Growth inhibition of human NCI-ADR-RES cells at 10^-5 M incubated for 48 hrs by sulforhodamine B assay relative to control
[22] = system: SF-295; assay: Growth inhibition of human SF295 cells at 10^-5 M incubated for 48 hrs by sulforhodamine B assay relative to control
[23] = system: Candida albicans; assay: Antifungal activity against Candida albicans at 100 ug/ml by disc diffusion method; details: read-out: IZ
[24] = system: OVCAR-5; assay: Growth inhibition of human OVCAR5 cells at 10^-5 M incubated for 48 hrs by sulforhodamine B assay relative to control
[25] = system: IGROV-1; assay: Growth inhibition of human IGROV1 cells at 10^-5 M incubated for 48 hrs by sulforhodamine B assay relative to control
[26] = system: SK-MEL-5; assay: Growth inhibition of human SK-MEL-5 cells at 10^-5 M incubated for 48 hrs by sulforhodamine B assay relative to control
[27] = system: COLO 205; assay: Growth inhibition of human COLO205 cells at 10^-5 M incubated for 48 hrs by sulforhodamine B assay relative to control
[28] = system: U-251; assay: Growth inhibition of human U251 cells at 10^-5 M incubated for 48 hrs by sulforhodamine B assay relative to control
[29] = system: ACHN; assay: Growth inhibition of human ACHN cells at 10^-5 M incubated for 48 hrs by sulforhodamine B assay relative to control
[30] = system: Candida albicans; assay: Antifungal activity against Candida albicans after 24 hrs by serial dilution method
[31] = system: MOLT-4; assay: Growth inhibition of human MOLT4 cells at 10^-5 M incubated for 48 hrs by sulforhodamine B assay relative to control
[32] = system: NCI-H522; assay: Growth inhibition of human NCI-H522 cells at 10^-5 M incubated for 48 hrs by sulforhodamine B assay relative to control
[33] = system: SK-MEL-2; assay: Growth inhibition of human SK-MEL-2 cells at 10^-5 M incubated for 48 hrs by sulforhodamine B assay relative to control
[34] = system: SW-620; assay: Growth inhibition of human SW620 cells at 10^-5 M incubated for 48 hrs by sulforhodamine B assay relative to control
[35] = system: LOX IMVI; assay: Growth inhibition of human LOXIMVI cells at 10^-5 M incubated for 48 hrs by sulforhodamine B assay relative to control
[36] = system: SK-MEL-28; assay: Growth inhibition of human SK-MEL-28 cells at 10^-5 M incubated for 48 hrs by sulforhodamine B assay relative to control
[37] = system: 786-0; assay: Growth inhibition of human 786-0 cells at 10^-5 M incubated for 48 hrs by sulforhodamine B assay relative to control
[38] = system: BT-549; assay: Growth inhibition of human BT549 cells at 10^-5 M incubated for 48 hrs by sulforhodamine B assay relative to control
[39] = system: UO-31; assay: Growth inhibition of human UO31 cells at 10^-5 M incubated for 48 hrs by sulforhodamine B assay relative to control
[40] = system: SNB-75; assay: Growth inhibition of human SNB75 cells at 10^-5 M incubated for 48 hrs by sulforhodamine B assay relative to control
[41] = system: M14; assay: Growth inhibition of human M14 cells at 10^-5 M incubated for 48 hrs by sulforhodamine B assay relative to control
[42] = system: Hs-578T; assay: Growth inhibition of human Hs 578T cells at 10^-5 M incubated for 48 hrs by sulforhodamine B assay relative to control
[43] = system: OVCAR-8; assay: Growth inhibition of human OVCAR8 cells at 10^-5 M incubated for 48 hrs by sulforhodamine B assay relative to control
[44] = system: MDA-MB-468; assay: Growth inhibition of human MDA-MB-468 cells at 10^-5 M incubated for 48 hrs by sulforhodamine B assay relative to control

`Cc1ccc2nc(Cl)c(Cn3nnc(CSc4ccccc4)n3)cc2c1` was tested, and the “growth inhibition (GI)” value [1] was “Active”, the “growth inhibition (GI)” value [2] was “Active” and the “growth inhibition (GI)” value [3] was “Active”. The “growth inhibition (GI)” value [4] was “Active”, the “growth inhibition (GI)” value [5] was “Active” and the “growth inhibition (GI)” value [6] was “Active”. The “growth inhibition (GI)” value [7] was “Active”, the “growth inhibition (GI)” value [8] was “Active” and the “growth inhibition (GI)” value [9] was “Active”. The “growth inhibition (GI)” value [10] was “Active”, the “growth inhibition (GI)” value [11] was “Active” and the “growth inhibition (GI)” value [12] was “Active”. For the same molecule, the “growth inhibition (GI)” value [13] was “Active”, the “growth inhibition (GI)” value [14] was “Active” and the “growth inhibition (GI)” value [15] was “Active”. The “growth inhibition (GI)” value [16] was “Active”, the “growth inhibition (GI)” value [17] was “Active” and the “growth inhibition (GI)” value [18] was “Active”. For the same molecule, the “growth inhibition (GI)” value [19] was “Active”, the MIC [20] was 25 µg/mL (≈ 65.5 µM) and the “growth inhibition (GI)” value [21] was “Active”. For the same molecule, the “growth inhibition (GI)” value [22] was “Active”, the zone of inhibition at 100 µg/mL [23] was 12 mm and the “growth inhibition (GI)” value [24] was “Active”. The “growth inhibition (GI)” value [25] was “Active”, the “growth inhibition (GI)” value [26] was “Active” and the “growth inhibition (GI)” value [27] was “Active”. The “growth inhibition (GI)” value [28] was “Active”, the “growth inhibition (GI)” value [29] was “Active” and the MIC [30] was 10 µg/mL (≈ 26.2 µM). The “growth inhibition (GI)” value [31] was “Active”, the “growth inhibition (GI)” value [32] was “Active” and the “growth inhibition (GI)” value [33] was “Active”. For the same molecule, the “growth inhibition (GI)” value [34] was “Active”, the “growth inhibition (GI)” value [35] was “Active” and the “growth inhibition (GI)” value [36] was “Active”. The “growth inhibition (GI)” value [37] was “Active”, the “growth inhibition (GI)” value [38] was “Active” and the “growth inhibition (GI)” value [39] was “Active”. The “growth inhibition (GI)” value [40] was “Active”, the “growth inhibition (GI)” value [41] was “Active” and the “growth inhibition (GI)” value [42] was “Active”. For the same molecule, the “growth inhibition (GI)” value [43] was “Active” and the “growth inhibition (GI)” value [44] was “Active”.

With `Clc1nc2ccccc2cc1Cn1nnc(Cc2ccccc2)n1` the inhibition of growth at 10 µM ([1]; UACC-62, 48 h, read-out: GI) was 48.3%, the inhibition of growth at 10 µM ([2]; SNB-19, 48 h, read-out: GI) was 10.2% and the inhibition of growth at 10 µM ([3]; TK-10, 48 h, read-out: GI) was 39.1%. It also gave an inhibition of growth at 10 µM ([4]; HCT-116, 48 h, read-out: GI) of 64.9%, an inhibition of growth at 10 µM ([5]; HCC 2998, 48 h, read-out: GI) of 18.7% and an inhibition of growth at 10 µM ([6]; NCI-H23, 48 h, read-out: GI) of 54.5%. For the same molecule, the inhibition of growth at 10 µM ([7]; UACC-257, 48 h, read-out: GI) was 46.4%, the inhibition of growth at 10 µM ([8]; MDA-MB-231, 48 h, read-out: GI) was 47% and the inhibition of growth at 10 µM ([9]; KM12, 48 h, read-out: GI) was 33.7%. It also gave an inhibition of growth at 10 µM ([10]; A549, 48 h, read-out: GI) of 46.1%, an inhibition of growth at 10 µM ([11]; HL-60, 48 h, read-out: GI) of 12.1% and an inhibition of growth at 10 µM ([12]; MCF7, 48 h, read-out: GI) of 54.2%. For the same molecule, the inhibition of growth at 10 µM ([13]; HCT-15, 48 h, read-out: GI) was 35%, the inhibition of growth at 10 µM ([14]; OVCAR-4, 48 h, read-out: GI) was 70.3% and the inhibition of growth at 10 µM ([15]; SF-539, 48 h, read-out: GI) was 18.8%. It also gave an inhibition of growth at 10 µM ([16]; read-out: GI) of 63.9%, an inhibition of growth at 10 µM ([17]; NCI-H460, 48 h, read-out: GI) of 25.7% and an inhibition of growth at 10 µM ([18]; RXF 393, 48 h, read-out: GI) of 16.1%. It also gave an inhibition of growth at 10 µM ([19]; read-out: GI) of 73.9%, an MIC [20] of 50 µg/mL (≈ 149 µM) and an inhibition of growth at 10 µM ([21]; read-out: GI) of 47.9%. It also gave an inhibition of growth at 10 µM ([22]; SF-295, 48 h, read-out: GI) of 52.4%, a zone of inhibition at 100 µg/mL [23] of 10 mm and an inhibition of growth at 10 µM ([24]; OVCAR-5, 48 h, read-out: GI) of -4.25%. It also gave an inhibition of growth at 10 µM ([25]; IGROV-1, 48 h, read-out: GI) of 49.1%, an inhibition of growth at 10 µM ([26]; SK-MEL-5, 48 h, read-out: GI) of 99.3% and an inhibition of growth at 10 µM ([27]; COLO 205, 48 h, read-out: GI) of 17.3%. It also gave an inhibition of growth at 10 µM ([28]; U-251, 48 h, read-out: GI) of 23.7%, an inhibition of growth at 10 µM ([29]; read-out: GI) of 47.8% and an MIC [30] of 25 µg/mL (≈ 74.4 µM). For the same molecule, the inhibition of growth at 10 µM ([31]; MOLT-4, 48 h, read-out: GI) was 56.9%, the inhibition of growth at 10 µM ([32]; NCI-H522, 48 h, read-out: GI) was 57.9% and the inhibition of growth at 10 µM ([33]; SK-MEL-2, 48 h, read-out: GI) was 41.2%. For the same molecule, the inhibition of growth at 10 µM ([34]; SW-620, 48 h, read-out: GI) was 13.4%, the inhibition of growth at 10 µM ([35]; read-out: GI) was 46.4% and the inhibition of growth at 10 µM ([36]; SK-MEL-28, 48 h, read-out: GI) was 15.3%. The inhibition of growth at 10 µM ([37]; 786-0, 48 h, read-out: GI) was 27.1%, the inhibition of growth at 10 µM ([38]; BT-549, 48 h, read-out: GI) was 61.1% and the inhibition of growth at 10 µM ([39]; UO-31, 48 h, read-out: GI) was 181%. For the same molecule, the inhibition of growth at 10 µM ([40]; SNB-75, 48 h, read-out: GI) was 44.6%, the inhibition of growth at 10 µM ([41]; M14, 48 h, read-out: GI) was 26.4% and the inhibition of growth at 10 µM ([42]; read-out: GI) was 23.4%. The inhibition of growth at 10 µM ([43]; OVCAR-8, 48 h, read-out: GI) was 28.4% and the inhibition of growth at 10 µM ([44]; MDA-MB-468, 48 h, read-out: GI) was 88.9%.
